Test results: ChEMBL document CHEMBL5576038, “Design of a novel long-acting dual GLP-1/GIP receptor agonist” (Bioorg Med Chem, 2024)
pEC50: −log10 of the molar value. Active and inactive are the calls of the source. The rule behind the calls is not given here. Where a SMILES comes first, the peptide text is derived from it. [ ]: non-standard residue; d: D form. The star is where a group is joined. X3 = O=C(O)CCCCCCCCCCCCCCCCC(=O)NCCOCCOCC(=O)N[C@@H](CCC(=O)N[C@@H](CCC(=O)N[C@@H](CCCCNC(=O)C*)C(=O)O)C(=O)O)C(=O)O; X2 = O=C(O)CCCCCCCCCCCCCCCCC(=O)NCCOCCOCC(=O)N[C@@H](CCC(=O)N[C@H](CCC(=O)N[C@H](CCCCNC(=O)C*)C(=O)O)C(=O)O)C(=O)O; Aib = CC(C)(N)C(=O)O

What was measured:
[1] = Tmax in Beagle dog at 10 nmol/kg, sc administered as single dose and measured upto 168 hrs by LC-MS/MS analysis; format: ADME, organism-based, Canis lupus familiaris; conditions: in vivo, sc, 168 h
[2] = Cmax in Beagle dog at 10 nmol/kg, sc administered as single dose and measured upto 168 hrs by LC-MS/MS analysis; format: ADME, organism-based, Canis lupus familiaris; conditions: in vivo, sc, 168 h
[3] = AUC (0 to 168 hrs) in Beagle dog at 10 nmol/kg, sc administered as single dose and measured upto 168 hrs by LC-MS/MS analysis; format: ADME, organism-based, Canis lupus familiaris; conditions: in vivo, sc, 168 h
[4] = Elimination half life in Beagle dog at 10 nmol/kg, sc administered as single dose and measured upto 168 hrs by LC-MS/MS analysis; format: ADME, organism-based, Canis lupus familiaris; conditions: in vivo, sc, 168 h
[5] = biological target: T1, Gastric inhibitory polypeptide receptor (Homo sapiens, UniProt P48546); experiment: Agonist activity at human GIPR expressed in CHO cells assessed as increase in cAMP production incubated for 30 mins by Eu-cAMP tracer based microplate reader analysis; format: functional, cell-based
T1 sequence (P48546 whole entry): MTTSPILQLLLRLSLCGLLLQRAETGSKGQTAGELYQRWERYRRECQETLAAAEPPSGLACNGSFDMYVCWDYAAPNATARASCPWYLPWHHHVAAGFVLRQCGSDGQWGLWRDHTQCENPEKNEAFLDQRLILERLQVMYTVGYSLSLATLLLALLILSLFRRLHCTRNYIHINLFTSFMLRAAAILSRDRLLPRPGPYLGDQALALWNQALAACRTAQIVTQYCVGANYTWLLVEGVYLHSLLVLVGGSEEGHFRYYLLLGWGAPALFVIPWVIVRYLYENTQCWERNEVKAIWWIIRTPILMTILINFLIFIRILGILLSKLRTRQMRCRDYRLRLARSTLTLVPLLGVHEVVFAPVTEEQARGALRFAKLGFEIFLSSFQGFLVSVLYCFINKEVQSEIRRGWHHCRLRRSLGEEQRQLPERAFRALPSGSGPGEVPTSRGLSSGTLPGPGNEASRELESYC

[6] = biological target: Glucagon-like peptide 1 receptor (Homo sapiens, UniProt P43220); experiment: Agonist activity at human GLP-1R expressed in CHO cells assessed as increase in cAMP production incubated for 30 mins by Eu-cAMP tracer based microplate reader analysis; format: functional, cell-based
Mus musculus [7] = experiment: Glucose-lowering effect in male ICR mouse assessed as reduction in plasma glucose AUC (0 to 72 hrs) at 30 nmol/kg, sc pretreated for 71 hrs followed by […] administration and measured after 60 mins by oral glucose tolerance test; format: functional, organism-based
Mus musculus [8] = experiment: Increase in body weight in male ICR mouse at 30 nmol/kg, sc measured after 2 days; format: functional, organism-based; conditions: time 2.0 day
Mus musculus [9] = experiment: Anti-obesity activity in male C57/B16 mouse model of diet-induced obesity assessed as reduction in body weight at 10 nmol/kg, sc administered every 3 days for 46 days and measured every 3 days relative to control; format: functional; parameters: scale not given: the % may be the effect or the level left; conditions: time 46.0 day
Mus musculus [10] = experiment: Hypoglycemic effect in male db/db mouse model assessed as blood glucose level at 30 nmol/kg, sc administered every 3 days for 31 days and measured 72 hrs post each dose; format: functional, organism-based; conditions: time 31.0 day
Mus musculus [11] = experiment: Hypoglycemic effect in male db/db mouse model assessed as reduction in body weight at 30 nmol/kg, sc administered every 3 days for 60 days and measured every 3 days; format: functional, organism-based; conditions: time 60.0 day
Mus musculus [12] = experiment: Hypoglycemic effect in male db/db mouse model assessed as reduction in HbA1c level at 30 nmol/kg, sc administered every 3 days for 60 days and measured on day 18, 31, 37, 52, 58 and 60 by auto-chemistry analyzer; format: functional, organism-based; conditions: time 60.0 day
Mus musculus [13] = experiment: Reduction in body weight in male ICR mouse at 30 nmol/kg, sc measured for 4 days; format: functional, organism-based; conditions: time 4.0 day

Chain of Glucagon-like peptide 1 receptor (P43220 whole entry): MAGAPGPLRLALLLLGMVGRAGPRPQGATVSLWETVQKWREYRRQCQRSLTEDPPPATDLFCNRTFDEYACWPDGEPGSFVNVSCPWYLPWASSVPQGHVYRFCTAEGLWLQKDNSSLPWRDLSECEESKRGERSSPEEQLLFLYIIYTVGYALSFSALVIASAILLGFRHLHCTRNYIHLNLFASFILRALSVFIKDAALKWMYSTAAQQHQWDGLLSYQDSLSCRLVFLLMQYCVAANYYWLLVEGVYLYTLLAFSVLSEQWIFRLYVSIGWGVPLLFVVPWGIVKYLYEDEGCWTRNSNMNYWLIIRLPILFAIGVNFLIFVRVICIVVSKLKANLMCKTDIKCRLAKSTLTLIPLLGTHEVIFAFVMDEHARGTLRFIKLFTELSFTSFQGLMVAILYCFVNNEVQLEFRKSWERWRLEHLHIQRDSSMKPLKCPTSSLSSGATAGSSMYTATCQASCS

Compound: TIRZEPATIDE [listing 1 of 2 here]
- Tmax [1]: 14 h
- Cmax [2]: 344 ng/mL
- AUC [3]: 35123 ng·h/mL
- beta t1/2 [4]: 93.8 h

Compound: CC(C)C[C@H](NC(=O)[C@H](CC(C)C)NC(=O)[C@H](Cc1c[nH]c2ccccc12)NC(=O)[C@H](CCC(N)=O)NC(=O)[C@@H](NC(=O)[C@H](Cc1ccccc1)NC(=O)[C@H](CC(C)C)NC(=O)[C@H](CCCCN)NC(=O)[C@H](C)NC(=O)[C@H](C)NC(=O)[C@H](CCC(N)=O)NC(=O)[C@H](CSCC(=O)NCCCC[C@@H](NC(=O)CC[C@@H](NC(=O)CC[C@H](NC(=O)COCCOCCNC(=O)CCCCCCCCCCCCCCCCC(=O)O)C(=O)O)C(=O)O)C(=O)O)NC(=O)[C@H](CCC(=O)O)NC(=O)[C@H](CC(C)C)NC(=O)[C@H](Cc1ccc(O)cc1)NC(=O)[C@H](Cc1ccc(O)cc1)NC(=O)[C@H](CO)NC(=O)[C@H](Cc1ccc(O)cc1)NC(=O)[C@H](CC(=O)O)NC(=O)[C@H](CO)NC(=O)[C@@H](NC(=O)[C@H](Cc1ccccc1)NC(=O)[C@@H](NC(=O)CNC(=O)[C@H](CCC(=O)O)NC(=O)C(C)(C)NC(=O)[C@@H](N)Cc1ccc(O)cc1)[C@@H](C)O)[C@@H](C)O)C(C)C)C(=O)N[C@@H](C)C(=O)NCC(=O)NCC(=O)N1CCC[C@H]1C(=O)N[C@@H](CO)C(=O)N[C@@H](CO)C(=O)NCC(=O)N[C@@H](C)C(=O)N1CCC[C@H]1C(=O)N1CCC[C@H]1C(=O)N1CCC[C@H]1C(=O)N[C@@H](CO)C(N)=O (H-Y[Aib]EGTFTSDYSYYLEC(X2)QAAKLFVQWLLAGGPSSGAPPPS-NH2)
- pEC50 ([5]; cho): 9.96
- pEC50 ([6]; cho): 9.85
- Activity (Mus musculus [7]): Active
- Activity (Mus musculus [8]): Active

Compound: TIRZEPATIDE [listing 2 of 2 here]
- Activity (Mus musculus [9]): 21%
- Activity (Mus musculus [10]): Active
- Activity (Mus musculus [11]): Active
- Activity (Mus musculus [12]): Active
- Activity (Mus musculus [13]): Active

Compound: CC(C)C[C@H](NC(=O)[C@H](CC(C)C)NC(=O)[C@H](Cc1c[nH]c2ccccc12)NC(=O)[C@H](CCC(N)=O)NC(=O)[C@@H](NC(=O)[C@H](Cc1ccccc1)NC(=O)[C@H](CC(C)C)NC(=O)[C@H](CCCCN)NC(=O)[C@H](C)NC(=O)[C@H](C)NC(=O)[C@H](CCC(N)=O)NC(=O)[C@H](CCCCN)NC(=O)[C@H](CCC(=O)O)NC(=O)[C@H](CC(C)C)NC(=O)[C@H](CSCC(=O)NCCCC[C@H](NC(=O)CC[C@H](NC(=O)CC[C@H](NC(=O)COCCOCCNC(=O)CCCCCCCCCCCCCCCCC(=O)O)C(=O)O)C(=O)O)C(=O)O)NC(=O)[C@H](Cc1ccc(O)cc1)NC(=O)[C@H](CO)NC(=O)[C@H](Cc1ccc(O)cc1)NC(=O)[C@H](CC(=O)O)NC(=O)[C@H](CO)NC(=O)[C@@H](NC(=O)[C@H](Cc1ccccc1)NC(=O)[C@@H](NC(=O)CNC(=O)[C@H](CCC(=O)O)NC(=O)C(C)(C)NC(=O)[C@@H](N)Cc1ccc(O)cc1)[C@@H](C)O)[C@@H](C)O)C(C)C)C(=O)N[C@@H](C)C(=O)NCC(=O)NCC(=O)N1CCC[C@H]1C(=O)N[C@@H](CO)C(=O)N[C@@H](CO)C(=O)NCC(=O)N[C@@H](C)C(=O)N1CCC[C@H]1C(=O)N1CCC[C@H]1C(=O)N1CCC[C@H]1C(=O)N[C@@H](CO)C(N)=O (H-Y[Aib]EGTFTSDYSYC(X3)LEKQAAKLFVQWLLAGGPSSGAPPPS-NH2)
- pEC50 [5]: 9.85
- pEC50 [6]: 9.54
- Activity (Mus musculus [8]): Active
